# Experimental data published in patent US5684005A, “Pharmacologically active CNS compounds” (Glaxo Wellcome Inc., priority 1988, dated 1997).
# Legend:
# [1] = Duration of action / clearance from central nervous system; conditions: in words
# release of glutamate = conditions: in words, literature; cited from earlier work
# release of aspartate = conditions: in words, literature; cited from earlier work
compound,measurement,setting,value
"CN1CCN(c2ncc(-c3cc(Cl)cc(Cl)c3Cl)c(N)n2)CC1.CS(=O)(=O)O [Example 3, 4-Amino-2-(4-methylpiperazin-1-yl)-5-(2,3,5-trichlorophenyl) pyrimidine mesylate]",duration of action,[1],long acting
"CN1CCN(c2nc(N)c(-c3cc(Cl)cc(Cl)c3Cl)c(C(F)(F)F)n2)CC1 [Example 1, 4-Amino-2-(4-methylpiperazin-1-yl)-5-(2,3,5-trichlorophenyl)-6-trifluoromethylpyrimidine]",duration of action,[1],long acting
"Nc1nc(N)c(-c2cc(Cl)cc(Cl)c2Cl)c(C(F)(F)F)n1 [Example 4, 2,4-Diamino-5-(2,3,5-trichlorophenyl)-6-trifluoromethyl pyrimidine]",duration of action,[1],long acting
"COCc1nc(N)nc(N)c1-c1cc(Cl)cc(Cl)c1Cl [Example 2, 2,4-Diamino-5-(2,3,5-trichlorophenyl)-6-methoxymethyl pyrimidine]",duration of action,[1],short acting
"Nc1nnc(-c2cccc(Cl)c2Cl)c(N)n1 [lamotrigine, 3,5-diamino-6-(2,3-dichlorophenyl)-1,2,4-triazine]",inhibition of glutamate release,release of glutamate,shown to inhibit the release
same,inhibition of aspartate release,release of aspartate,shown to inhibit the release
